{
  "source": "patent US4322339A",
  "about": "“Pharmacologically active peptides” (Eli Lilly and Company, priority 1980, dated 1982)",
  "key": {"enkephalin (δ) receptor": {"target": "T1, enkephalin (δ) receptor (Mus musculus, UniProt P32300)", "T1 construct": "from tissue; host or cells: isolated mouse vas deferens (Cox mice, 30-40 g)", "T1 sequence (P32300 whole entry)": "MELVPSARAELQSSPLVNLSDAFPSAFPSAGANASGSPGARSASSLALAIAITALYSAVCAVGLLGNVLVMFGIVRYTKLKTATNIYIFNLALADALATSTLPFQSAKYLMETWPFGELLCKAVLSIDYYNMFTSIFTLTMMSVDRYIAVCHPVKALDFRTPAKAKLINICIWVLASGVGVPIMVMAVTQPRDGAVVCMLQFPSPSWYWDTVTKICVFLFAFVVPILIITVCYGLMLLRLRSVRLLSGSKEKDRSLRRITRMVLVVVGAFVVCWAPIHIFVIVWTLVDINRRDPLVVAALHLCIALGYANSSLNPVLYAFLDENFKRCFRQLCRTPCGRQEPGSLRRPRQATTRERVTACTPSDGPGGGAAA", "experiment": "mouse vas deferens assay", "type": "tissue-based", "conditions": "concentration causing depression of 50% of the electrically evoked contraction; field stimulation 0.15 Hz, 1 msec., 40 V; 37° C.", "experimental": "In the mouse vas deferens test, single mouse vas deferens from mature mice (Cox, 30-40 g.) are suspended in 3 ml. of modified Kreb's solution aerated with 95% O2 -5% CO2 and maintained at 37° C. The twitch induced by field stimulation (0.15 Hz, 1 msec., 40 V) is recorded on a polygraph via an isometric transducer. The test compound is added to the bath in 20 to 30 μl. aliquots. A dose-response curve is constructed by cumulative addition of appropriate amounts of the compound to the bath. Comparison of relative agonist potency at the δ receptor is made on the basis of IC50 values (concentration causing depression of 50% of the electrically evoked contraction)."}, "mouse (Cox Standard)": {"tested_on": "mouse (Cox Standard)", "experiment": "mouse hot plate test (mouse jump)", "type": "in vivo", "conditions": "subcutaneous injection, hot plate 52° C., 15 minutes after administration"}},
  "data": [
    {"smiles": "CSCC[C@@H](C(N)=O)N(C)C(=O)[C@H](Cc1cccc(Br)c1)NC(=O)CNC(=O)[C@@H](C)NC(=O)[C@@H](N)Cc1ccc(O)cc1", "note": "[Br, L-Tyrosyl-D-alanyl-glycyl-L-m-bromophenylalanyl-L-(N^α -methyl)methioninamide]", "values": [
      {"measurement": "IC50", "setting": "enkephalin (δ) receptor", "result": 0.49, "unit": "nM"},
      {"measurement": "Mouse Jump ED50", "setting": "mouse (Cox Standard); Cox Standard mice", "result": 0.36, "unit": "mg/kg"}
    ]},
    {"smiles": "CSCC[C@@H](C(N)=O)N(C)C(=O)[C@H](Cc1cccc(C(F)(F)F)c1)NC(=O)CNC(=O)[C@@H](C)NC(=O)[C@@H](N)Cc1ccc(O)cc1", "note": "[CF3, L-Tyrosyl-D-alanyl-glycyl-L-m-trifluoro-methylphenylalanyl-L-(N^α-methyl)methioninamide]", "values": [
      {"measurement": "IC50", "setting": "enkephalin (δ) receptor", "result": 1.78, "unit": "nM"},
      {"measurement": "Mouse Jump ED50", "setting": "mouse (Cox Standard); Cox Standard mice", "result": 0.33, "unit": "mg/kg"}
    ]},
    {"smiles": "CSCC[C@@H](C(N)=O)N(C)C(=O)[C@H](Cc1cccc(C)c1)NC(=O)CNC(=O)[C@@H](C)NC(=O)[C@@H](N)Cc1ccc(O)cc1", "note": "[CH3, L-Tyrosyl-D-alanyl-glycyl-L-m-methylphenylalanyl-L-(N^α -methyl)methioninamide]", "values": [
      {"measurement": "IC50", "setting": "enkephalin (δ) receptor", "result": 2.73, "unit": "nM"},
      {"measurement": "Mouse Jump ED50", "setting": "mouse (Cox Standard); Cox Standard mice", "result": 0.33, "unit": "mg/kg"}
    ]},
    {"smiles": "CSCC[C@@H](C(N)=O)N(C)C(=O)[C@H](Cc1cccc(Cl)c1)NC(=O)CNC(=O)[C@@H](C)NC(=O)[C@@H](N)Cc1ccc(O)cc1", "note": "[Cl, L-Tyrosyl-D-alanyl-glycyl-L-m-chlorophenylalanyl-L-(N^α -methyl)methioninamide]", "values": [
      {"measurement": "IC50", "setting": "enkephalin (δ) receptor", "result": 0.71, "unit": "nM"},
      {"measurement": "Mouse Jump ED50", "setting": "mouse (Cox Standard); Cox Standard mice", "result": 0.11, "unit": "mg/kg"}
    ]},
    {"smiles": "CSCC[C@@H](C(N)=O)N(C)C(=O)[C@H](Cc1ccccc1)NC(=O)CNC(=O)[C@@H](C)NC(=O)[C@@H](N)Cc1ccc(O)cc1", "note": "[H, reference compound]", "values": [
      {"measurement": "IC50", "setting": "enkephalin (δ) receptor", "result": 12.2, "unit": "nM"},
      {"measurement": "Mouse Jump ED50", "setting": "mouse (Cox Standard); Cox Standard mice", "result": 0.36, "unit": "mg/kg"}
    ]},
    {"smiles": "CSCC[C@@H](C(N)=O)N(C)C(=O)[C@H](Cc1cccc(I)c1)NC(=O)CNC(=O)[C@@H](C)NC(=O)[C@@H](N)Cc1ccc(O)cc1", "note": "[I, H-L-Tyr-D-Ala-Gly-L-Phe(I)-L-(N-Me)Met-NH2]", "values": [
      {"measurement": "IC50", "setting": "enkephalin (δ) receptor", "result": 2.1, "unit": "nM"}
    ]},
    {"smiles": "COc1cccc(C[C@H](NC(=O)CNC(=O)[C@@H](C)NC(=O)[C@@H](N)Cc2ccc(O)cc2)C(=O)N(C)[C@@H](CCSC)C(N)=O)c1", "note": "[OMe, L-Tyrosyl-D-alanyl-glycyl-L-m-methoxyphenylalanyl-L-(N^α -methyl)methioninamide]", "values": [
      {"measurement": "IC50", "setting": "enkephalin (δ) receptor", "result": 2.92, "unit": "nM"},
      {"measurement": "Mouse Jump ED50", "setting": "mouse (Cox Standard); run using Harlan ND4 mice", "result": 0.15, "unit": "mg/kg"}
    ]}
  ]
}
